Test results taken from ChEMBL document CHEMBL1201862, “PubChem BioAssay data set” (2004).
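Following 48 hours of exposure in 96-well plates, responses at five concentrations were used to interpolate endpoints linearly. GI50: concentration for 50% inhibition of growth.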 Calls of active or inactive are those of the source. No stated cut-off is given here; in the data, active = GI50 up to about 1.1 µM and inactive = higher.

Experiments:
Experiment in all cases: NCI anticancer screen, dose series, 48 h
[1] = test system: SK-MEL-5
[2] = test system: NCI/ADR-RES
[3] = test system: Malme-3M
[4] = test system: HCC 2998
[5] = test system: OVCAR-3
[6] = test system: SW-620
[7] = test system: HOP-62
[8] = test system: CCRF-CEM
[9] = test system: MCF7
[10] = test system: HOP-92
[11] = test system: TK-10
[12] = test system: NCI-H23
[13] = test system: HCT-116
[14] = test system: SK-MEL-2
[15] = test system: Hs-578T
[16] = test system: RXF 393
[17] = test system: MOLT-4
[18] = test system: M14
[19] = test system: A549
[20] = test system: NCI-H460
[21] = test system: UACC-257
[22] = test system: SNB-19
[23] = test system: SK-OV-3
[24] = test system: CAKI-1
[25] = test system: U-251
[26] = test system: K562
[27] = test system: OVCAR-4
[28] = test system: NCI-H522
[29] = test system: SNB-75
[30] = test system: SN12C
[31] = test system: HT-29
[32] = test system: OVCAR-8
[33] = test system: MDA-MB-435
[34] = test system: HCT-15
[35] = test system: MDA-MB-231
[36] = test system: COLO 205
[37] = test system: SK-MEL-28
[38] = test system: T47D
[39] = test system: SF-539
[40] = test system: SF-268
[41] = test system: 786-0
[42] = test system: UACC-62
[43] = test system: SF-295
[44] = test system: HL-60
[45] = test system: UO-31
[46] = test system: DU-145
[47] = test system: PC-3
[48] = test system: A498
[49] = test system: RPMI-8226
[50] = test system: KM12
[51] = test system: OVCAR-5
[52] = test system: EKVX
[53] = test system: BT-549
[54] = test system: NCI-H226
[55] = test system: SR
[56] = test system: IGROV-1
[57] = test system: LOX IMVI
[58] = test system: ACHN

For O=C1/C(=C\c2ccc(F)cc2)CCOc2c1ccc1ccccc21, the GI50 [1] was 21.2 µM (inactive), the GI50 [2] was 16.3 µM (inactive) and the GI50 [3] was 16.5 µM (inactive). For the same molecule, the GI50 [4] was 3.48 µM (inactive), the GI50 [5] was 8.15 µM (inactive) and the GI50 [6] was 14.4 µM (inactive). For the same molecule, the GI50 [7] was 26.8 µM (inactive), the GI50 [8] was 5.82 µM (inactive) and the GI50 [9] was 10.4 µM (inactive). The GI50 [10] was 24.9 µM (inactive), the GI50 [11] was 24.4 µM (inactive) and the GI50 [12] was 12.8 µM (inactive). For the same molecule, the GI50 [13] was 3.49 µM (inactive), the GI50 [14] was 45.7 µM (inactive) and the GI50 [15] was 40.3 µM (inactive). For the same molecule, the GI50 [16] was 13.4 µM (inactive), the GI50 [17] was 7.67 µM (inactive) and the GI50 [18] was 26.2 µM (inactive). For the same molecule, the GI50 [19] was 23.4 µM (inactive), the GI50 [20] was 25.1 µM (inactive) and the GI50 [21] was 19.5 µM (inactive). The GI50 [22] was 17.7 µM (inactive), the GI50 [23] was 36.6 µM (inactive) and the GI50 [24] was 21.1 µM (inactive). The GI50 [25] was 10.6 µM (inactive), the GI50 [26] was 6.68 µM (inactive) and the GI50 [27] was 15.3 µM (inactive). For the same molecule, the GI50 [28] was 34 µM (inactive), the GI50 [29] was 12.4 µM (inactive) and the GI50 [30] was 35.3 µM (inactive). For the same molecule, the GI50 [31] was 17.4 µM (inactive), the GI50 [32] was 12.7 µM (inactive) and the GI50 [33] was 26.8 µM (inactive). For the same molecule, the GI50 [34] was 11.2 µM, the GI50 [35] was 14.8 µM (inactive) and the GI50 [36] was 19 µM (inactive). The GI50 [37] was 23.3 µM (inactive), the GI50 [38] was 41.6 µM (inactive) and the GI50 [39] was 21.9 µM (inactive). For the same molecule, the GI50 [40] was 23.4 µM (inactive), the GI50 [41] was 23 µM (inactive) and the GI50 [42] was 37.2 µM (inactive). The GI50 [43] was 22 µM (inactive), the GI50 [44] was 14.9 µM (inactive) and the GI50 [45] was > 55.2 µM (inactive). The GI50 [46] was 31 µM (inactive), the GI50 [47] was 33 µM (inactive) and the GI50 [48] was 27.4 µM (inactive). The GI50 [49] was 3.3 µM (inactive), the GI50 [50] was 7.94 µM (inactive) and the GI50 [51] was 18.5 µM (inactive). For the same molecule, the GI50 [52] was 31.4 µM (inactive) and the GI50 [53] was 25.6 µM (inactive).
For CN(C)NC1=NS(=O)(=O)c2cc3c(cc2S1)N(N(C)C)C(=O)c1cc2c(cc1N(N(C)C)C3=O)SC(NN(C)C)=NS2(=O)=O, the GI50 [1] was > 10 µM (inactive), the GI50 [2] was > 10 µM (inactive) and the GI50 [3] was > 10 µM (inactive). For the same molecule, the GI50 [4] was > 10 µM (inactive), the GI50 [5] was > 10 µM (inactive) and the GI50 [6] was > 10 µM (inactive). The GI50 [54] was > 10 µM (inactive), the GI50 [7] was > 10 µM (inactive) and the GI50 [8] was > 10 µM (inactive). For the same molecule, the GI50 [9] was > 10 µM (inactive), the GI50 [10] was > 10 µM (inactive) and the GI50 [11] was > 10 µM (inactive). The GI50 [12] was > 10 µM (inactive), the GI50 [13] was > 10 µM (inactive) and the GI50 [14] was > 10 µM (inactive). The GI50 [15] was > 10 µM (inactive), the GI50 [55] was > 10 µM (inactive) and the GI50 [16] was > 10 µM (inactive). The GI50 [17] was > 10 µM (inactive), the GI50 [18] was > 10 µM (inactive) and the GI50 [19] was > 10 µM (inactive). For the same molecule, the GI50 [20] was > 10 µM (inactive), the GI50 [21] was > 10 µM (inactive) and the GI50 [22] was > 10 µM (inactive). The GI50 [23] was > 10 µM (inactive), the GI50 [24] was > 10 µM (inactive) and the GI50 [25] was > 10 µM (inactive). For the same molecule, the GI50 [26] was > 10 µM (inactive), the GI50 [27] was > 10 µM (inactive) and the GI50 [28] was > 10 µM (inactive). For the same molecule, the GI50 [29] was > 10 µM (inactive), the GI50 [30] was > 10 µM (inactive) and the GI50 [31] was > 10 µM (inactive). For the same molecule, the GI50 [32] was > 10 µM (inactive), the GI50 [34] was greater than 10 µM and the GI50 [56] was > 10 µM (inactive). The GI50 [36] was > 10 µM (inactive), the GI50 [37] was > 10 µM (inactive) and the GI50 [38] was > 10 µM (inactive). For the same molecule, the GI50 [39] was > 10 µM (inactive), the GI50 [40] was > 10 µM (inactive) and the GI50 [41] was > 10 µM (inactive). The GI50 [43] was > 10 µM (inactive), the GI50 [44] was > 10 µM (inactive) and the GI50 [45] was > 10 µM (inactive). For the same molecule, the GI50 [46] was > 10 µM (inactive), the GI50 [57] was > 10 µM (inactive) and the GI50 [47] was > 10 µM (inactive). The GI50 [48] was > 10 µM (inactive), the GI50 [49] was > 10 µM (inactive) and the GI50 [50] was > 10 µM (inactive). For the same molecule, the GI50 [51] was > 10 µM (inactive), the GI50 [58] was > 10 µM (inactive) and the GI50 [52] was > 10 µM (inactive). For the same molecule, the GI50 [53] was > 10 µM (inactive).
